Measurements reported in article PMC12231361, “KETAMIR-2, a new molecular entity and novel ketamine analog” (Frontiers in Pharmacology, 2025).
pIC50: −log10 of the molar value.

Molecular target: T1, PCP site on NMDA receptor
T1 construct: gene Grin1; PCP (channel pore) site of the NMDA receptor complex
Experiment: PCP-site binding assay
Conditions: read-out: PCP site / IC50/Ki
Source text: PCP-site binding assay on PCP site on NMDA receptor

Row | Molecule | pIC50
1 | CNC1(c2ccccc2Cl)CCCC1=O (centres unmarked) [Ketamir-2, 1-(2-chlorophenyl)-N-methyl-2-oxocyclopentan-1-aminium] | ~4.00
2 | Nor-Ketamir | ~3.33
